The record followed here is publication PMC2769490 (Journal of the American Chemical Society, 2009).

This assay deals with rabbit muscle actin (Oryctolagus cuniculus, UniProt P68135). The assay can be described thus: microcalorimetry. It is filed as binding.

Each structure is given as a SMILES string.

As to `O=C(c1ccccc1O)c1[nH]c(Cl)c(Cl)c1-n1c(C(=O)c2ccccc2O)cc(Cl)c1Cl` [compound 6, marinopyrrole A], binding was characterised by a dissociation constant (Kd) of 0.12 ± 0.2 µM.
